# Laboratory results taken from ChEMBL document CHEMBL1130019, “Discovery of potent isoxazoline glycoprotein IIb/IIIa receptor antagonists” (J Med Chem, 1997).
# Experiments:
# [1] = biological target: T1, Integrin alpha-IIb/beta-3 (Homo sapiens, UniProt P05106+P08514); assay: Inhibition of Fibrinogen Receptor integrin alphaIIb-beta3 in ELISA; type: protein-complex assay
# Target sequence in this assay (P05106 27-788 limits assumed): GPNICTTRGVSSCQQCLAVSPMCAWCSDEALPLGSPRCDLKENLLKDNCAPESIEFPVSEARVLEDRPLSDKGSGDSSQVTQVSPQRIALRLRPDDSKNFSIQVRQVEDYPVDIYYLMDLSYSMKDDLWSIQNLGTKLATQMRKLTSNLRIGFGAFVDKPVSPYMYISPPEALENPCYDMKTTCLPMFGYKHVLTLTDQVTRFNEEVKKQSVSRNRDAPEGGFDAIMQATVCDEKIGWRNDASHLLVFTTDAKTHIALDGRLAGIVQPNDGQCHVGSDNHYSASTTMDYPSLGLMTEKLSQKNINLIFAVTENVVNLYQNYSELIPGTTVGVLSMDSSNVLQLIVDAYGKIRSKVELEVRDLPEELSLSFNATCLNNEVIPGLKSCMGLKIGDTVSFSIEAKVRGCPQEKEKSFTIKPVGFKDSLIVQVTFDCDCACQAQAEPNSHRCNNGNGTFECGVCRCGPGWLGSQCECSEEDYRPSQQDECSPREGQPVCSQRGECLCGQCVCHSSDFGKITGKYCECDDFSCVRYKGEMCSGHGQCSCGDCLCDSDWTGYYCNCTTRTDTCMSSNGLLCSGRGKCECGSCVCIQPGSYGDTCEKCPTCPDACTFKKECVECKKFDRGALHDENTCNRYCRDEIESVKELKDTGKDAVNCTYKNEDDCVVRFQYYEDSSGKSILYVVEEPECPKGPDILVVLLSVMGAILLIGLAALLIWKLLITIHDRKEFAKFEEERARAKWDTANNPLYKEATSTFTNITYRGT
# Target sequence in this assay (P08514 32-887 limits assumed): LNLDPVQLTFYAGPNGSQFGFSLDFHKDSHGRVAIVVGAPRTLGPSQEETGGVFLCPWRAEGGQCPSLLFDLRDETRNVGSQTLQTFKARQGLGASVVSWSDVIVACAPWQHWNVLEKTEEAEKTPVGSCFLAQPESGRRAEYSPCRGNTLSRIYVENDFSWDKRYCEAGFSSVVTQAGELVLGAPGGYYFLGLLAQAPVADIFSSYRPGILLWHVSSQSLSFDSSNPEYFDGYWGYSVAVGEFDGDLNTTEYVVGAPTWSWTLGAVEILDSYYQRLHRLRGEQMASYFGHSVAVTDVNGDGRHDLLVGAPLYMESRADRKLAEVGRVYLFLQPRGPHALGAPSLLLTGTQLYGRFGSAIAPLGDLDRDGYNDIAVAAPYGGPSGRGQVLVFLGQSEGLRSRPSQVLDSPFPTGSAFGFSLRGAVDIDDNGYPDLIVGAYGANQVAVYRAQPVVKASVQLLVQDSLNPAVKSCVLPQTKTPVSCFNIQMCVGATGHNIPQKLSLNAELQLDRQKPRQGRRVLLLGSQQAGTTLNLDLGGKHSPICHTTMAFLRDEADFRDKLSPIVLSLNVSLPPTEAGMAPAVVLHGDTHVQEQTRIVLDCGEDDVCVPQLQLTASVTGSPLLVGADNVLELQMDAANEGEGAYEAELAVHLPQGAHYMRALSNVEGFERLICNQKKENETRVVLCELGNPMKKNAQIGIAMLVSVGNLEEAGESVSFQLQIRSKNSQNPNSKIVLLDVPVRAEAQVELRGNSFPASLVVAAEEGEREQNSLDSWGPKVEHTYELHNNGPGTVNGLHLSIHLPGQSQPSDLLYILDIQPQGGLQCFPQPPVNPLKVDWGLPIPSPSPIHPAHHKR
# Target sequence in this assay (P08514 891-1039 limits assumed): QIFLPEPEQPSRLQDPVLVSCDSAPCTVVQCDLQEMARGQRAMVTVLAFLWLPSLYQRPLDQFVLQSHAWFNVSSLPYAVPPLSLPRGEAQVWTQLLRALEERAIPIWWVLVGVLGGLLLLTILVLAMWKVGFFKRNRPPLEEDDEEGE
# Integrin alpha-5/beta-1 = Integrin alpha-5/beta-1 (Homo sapiens, UniProt P05556+P08648); assay: Inhibition of interaction between HUVEC cells and fibronectin; type: cell-based
# [2] = Inhibition of interaction between HUVEC cells and Vitronectin; type: cell-based, Homo sapiens
# [3] = biological target: T1, Integrin alpha-IIb/beta-3; assay: Inhibition of [125I]fibrinogen binding to activated human platelets; type: functional
# Target sequence in this assay (P05106 27-788 limits assumed): as the sequence (P05106 27-788 limits assumed) above
# Target sequence in this assay (P08514 32-887 limits assumed): as the sequence (P08514 32-887 limits assumed) above
# Target sequence in this assay (P08514 891-1039 limits assumed): as the sequence (P08514 891-1039 limits assumed) above
# Integrin alpha-M/beta-2 [4] = biological target: T2, Integrin alpha-M/beta-2 (Homo sapiens, UniProt P05107+P11215); assay: Inhibition of Mac-1 integrin (alphaM-beta2); type: protein-complex assay
# T2 sequence (P05107 23-769 limits assumed, other chains not shown): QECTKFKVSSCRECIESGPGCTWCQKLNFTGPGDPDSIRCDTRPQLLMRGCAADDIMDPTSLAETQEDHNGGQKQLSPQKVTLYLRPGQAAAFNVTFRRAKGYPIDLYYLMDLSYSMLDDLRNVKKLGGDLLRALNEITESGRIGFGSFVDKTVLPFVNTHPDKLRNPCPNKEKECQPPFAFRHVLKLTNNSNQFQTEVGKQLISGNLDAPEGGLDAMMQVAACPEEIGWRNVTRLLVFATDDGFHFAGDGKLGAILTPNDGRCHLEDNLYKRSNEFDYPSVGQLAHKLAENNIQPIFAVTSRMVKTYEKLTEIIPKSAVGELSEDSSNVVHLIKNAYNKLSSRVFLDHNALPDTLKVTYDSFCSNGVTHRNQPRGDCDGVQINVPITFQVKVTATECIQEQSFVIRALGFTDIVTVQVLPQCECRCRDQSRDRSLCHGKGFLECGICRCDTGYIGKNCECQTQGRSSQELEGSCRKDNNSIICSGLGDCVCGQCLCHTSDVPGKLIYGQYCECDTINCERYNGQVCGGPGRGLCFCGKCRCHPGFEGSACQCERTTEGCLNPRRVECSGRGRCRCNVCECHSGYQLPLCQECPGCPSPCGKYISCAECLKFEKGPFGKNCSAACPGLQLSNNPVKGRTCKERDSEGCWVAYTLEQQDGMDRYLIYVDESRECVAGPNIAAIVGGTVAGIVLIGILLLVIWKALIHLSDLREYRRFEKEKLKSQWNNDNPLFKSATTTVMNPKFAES
# Integrin alpha-M/beta-2 [5] = biological target: T2, Integrin alpha-M/beta-2; assay: Inhibition of Mac-1 interaction with ICAM; type: protein-complex assay
# Integrin alpha-4/beta-1 = Integrin alpha-4/beta-1 (Homo sapiens, UniProt P05556+P13612); assay: Inhibition of VLA-4 integrin alpha4-beta1 interaction with VCAM; type: protein-complex assay
# Chain of Integrin alpha-4/beta-1 (P05556 whole entry): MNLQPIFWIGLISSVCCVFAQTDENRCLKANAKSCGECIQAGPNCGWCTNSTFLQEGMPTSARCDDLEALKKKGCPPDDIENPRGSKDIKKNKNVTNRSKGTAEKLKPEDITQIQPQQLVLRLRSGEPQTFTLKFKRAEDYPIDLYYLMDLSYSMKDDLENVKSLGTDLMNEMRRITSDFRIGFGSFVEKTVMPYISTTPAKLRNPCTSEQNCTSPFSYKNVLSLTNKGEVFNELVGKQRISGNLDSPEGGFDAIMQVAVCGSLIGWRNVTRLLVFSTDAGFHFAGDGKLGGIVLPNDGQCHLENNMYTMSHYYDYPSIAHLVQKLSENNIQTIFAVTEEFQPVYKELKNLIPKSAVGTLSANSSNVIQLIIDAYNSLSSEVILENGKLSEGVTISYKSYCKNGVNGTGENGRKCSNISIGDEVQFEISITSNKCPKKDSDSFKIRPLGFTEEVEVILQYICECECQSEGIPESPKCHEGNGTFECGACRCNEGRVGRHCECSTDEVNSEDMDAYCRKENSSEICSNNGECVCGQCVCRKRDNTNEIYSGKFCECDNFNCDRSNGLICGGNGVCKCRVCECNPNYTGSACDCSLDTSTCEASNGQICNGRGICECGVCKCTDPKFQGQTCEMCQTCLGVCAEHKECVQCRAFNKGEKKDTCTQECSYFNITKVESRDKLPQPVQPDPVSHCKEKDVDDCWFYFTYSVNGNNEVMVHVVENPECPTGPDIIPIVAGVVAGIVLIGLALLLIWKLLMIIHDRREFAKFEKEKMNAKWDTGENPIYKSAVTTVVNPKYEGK
# Chain of Integrin alpha-4/beta-1 (P13612 whole entry): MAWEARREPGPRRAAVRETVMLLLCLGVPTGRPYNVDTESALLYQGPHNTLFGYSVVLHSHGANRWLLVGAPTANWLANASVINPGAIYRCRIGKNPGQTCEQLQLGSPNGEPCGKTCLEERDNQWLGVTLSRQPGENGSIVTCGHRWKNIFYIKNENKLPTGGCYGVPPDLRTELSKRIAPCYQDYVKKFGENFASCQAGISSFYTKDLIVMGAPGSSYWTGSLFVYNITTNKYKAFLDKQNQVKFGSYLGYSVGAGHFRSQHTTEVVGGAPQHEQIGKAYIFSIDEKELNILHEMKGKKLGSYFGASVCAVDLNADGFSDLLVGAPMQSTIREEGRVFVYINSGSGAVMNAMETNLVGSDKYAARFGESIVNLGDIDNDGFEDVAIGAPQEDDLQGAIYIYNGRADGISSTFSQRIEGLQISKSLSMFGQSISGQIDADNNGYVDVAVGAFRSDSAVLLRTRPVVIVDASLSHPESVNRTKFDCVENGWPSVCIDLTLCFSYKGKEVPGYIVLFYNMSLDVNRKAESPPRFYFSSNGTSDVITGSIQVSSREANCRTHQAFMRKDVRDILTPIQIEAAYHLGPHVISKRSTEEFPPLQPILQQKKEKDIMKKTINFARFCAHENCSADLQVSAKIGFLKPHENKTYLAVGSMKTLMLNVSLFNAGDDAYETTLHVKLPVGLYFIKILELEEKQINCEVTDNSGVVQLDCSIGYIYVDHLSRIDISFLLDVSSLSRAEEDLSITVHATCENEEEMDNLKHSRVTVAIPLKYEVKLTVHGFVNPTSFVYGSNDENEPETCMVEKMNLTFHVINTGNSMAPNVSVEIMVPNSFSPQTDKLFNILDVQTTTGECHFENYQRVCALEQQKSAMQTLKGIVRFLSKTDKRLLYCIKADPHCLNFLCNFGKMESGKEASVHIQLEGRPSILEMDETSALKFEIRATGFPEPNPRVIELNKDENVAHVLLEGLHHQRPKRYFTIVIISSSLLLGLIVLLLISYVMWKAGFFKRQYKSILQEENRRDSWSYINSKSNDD
# [6] = biological target: T1, Integrin alpha-IIb/beta-3; assay: Inhibition of human platelet aggregation induced by ADP at 100 uM; type: functional
# [7] = test system: Integrin alpha-IIb/beta-3 (Canis lupus familiaris); assay: Inhibition of ADP-mediated platelet aggregation over 6 hr; conditions: concentration not given here
structure (smiles),measurement,setting,value
N=C(N)c1ccc(C2=NOC(CC(=O)NCCC(=O)O)C2)cc1 (stereo unspecified),IC50,[1],0.0011 µM
same,IC50,Integrin alpha-5/beta-1,180 µM
same,IC50,[2],200 µM
same,IC50,[3],0.01 µM
same,IC50,Integrin alpha-M/beta-2 [4],> 100 µM
same,IC50,Integrin alpha-M/beta-2 [5],100 µM
same,IC50,Integrin alpha-4/beta-1,> 100 µM
O=C(O)CCN1C(=O)CC2(CC(CCC3CCNCC3)=NO2)C1=O (stereo unspecified),inhibition,[6],16.6%
CCOC(=O)CCNC(=O)CC1CC(c2ccc(C(=N)N)cc2)=NO1 (stereo unspecified),inhibition,[7],90%
O=C(O)CCCN1C(=O)CC2(CC(CCC3CCNCC3)=NO2)C1=O (stereo unspecified),inhibition,[6],16.3%
O=C(O)CCCN1C(=O)CC2(CC(CCCC3CCNCC3)=NO2)C1=O (stereo unspecified),inhibition,[6],24%
